The source of these data is PMC10917340, “Coxsackievirus infection induces direct pancreatic β cell killing but poor antiviral CD8^+ T cell responses” (Science Advances, 2024).

For assay [1], the target named is T1, HLA-A2 (Homo sapiens, UniProt P04439, D140Y/D185E/D98H/E176V/E277Q/G131W/G231S/I119V/I121R/I166T/I218V/N151K/N90K/P208A/P217A/Q86G/Q94H/R138H/R169H).
T1 construct: purchased ImmunAware
Briefly: In vitro HLA-I binding assay (bead-captured folded monomers).

For assay [2], the system named is circulating CD8+ T cells. Description: Combinatorial HLA-A2 multimer (MMr) assay, validation round. It counts as cell-based, human. The note with it: HLA-A2 MMr+CD8+ out of total CD8+ T cells; donors/peptides with <3 MMr+ cells noted as 1.0E-7.
The test system of assay [3] is circulating CD8+ T cells. Description: Combinatorial HLA-A2 multimer (MMr) assay, screening round. The note with it: for Screening round % effector/memory median (range): HLA-A2, effector/memory (non CD45RA+CCR7+) fraction among MMr+CD8+ T cells; for Screening round Frequency median: HLA-A2 MMr+CD8+ T cells out of total CD8+ T cells, frozen/thawed PBMCs, CVB-seropositive healthy adults, median of donors. The class given is cell-based, human.

The mark [4] stands for this setting: in silico predicted HLA-A2-binding peptides, fig. S2D.

Like-named read-outs stand apart in the source and are kept apart here.

As for “GIIYIIYKL [previously reported CVB peptide, IEDB #20311]”, the “In vitro binding to HLA-A2 (in words)” value in assay [1] was “did not confirm as binders”. As to “IMIKSMPAL [CVB1-2-5 60-68, HLA-A2, in silico]”, in assay [2], the “Validation round Frequency median” value is listed as 1.0 E-7. Further, in assay [3], the “Screening round % effector/memory median (range)” value is reported as 26 (0-70) % and the “Screening round Frequency median” value is 2.2 E-5. KLPDALSQM: in assay [1] (setting [4]), the “In vitro binding to HLA-A2 (in words)” value is recorded as “did not confirm as binders”.

Turning to VIASYPWPI, the “In vitro binding to HLA-A2 (in words)” value in assay [1] is given as “did not confirm as binders”. Take “VMGDALGSV [ZnT8245-253 peptide homologous to CVB1 150-158]”: the “In vitro binding to HLA-A2 (in words)” value in assay [1] (setting [4]) is recorded as “did not confirm as binders”. In the case of “VMIKSLPAL [CVB4-6 60-68, HLA-A2, in silico]”, in assay [3], the “Screening round % effector/memory median (range)” value is reported as 20 (20-20) % and the “Screening round Frequency median” value was 5.3 E-6.
